The record followed here is US9662372B2 (priority 2013, dated 2017).

Values joined by “and” are separate entries in the source; they are usually repeats but may differ in a detail not shown here. Equal values may be shown once. Where a SMILES comes first, the peptide text is derived from it. Where no end group is shown, it is not given here. [ ]: non-standard residue; d: D form. βAla = NCCC(=O)O

Assay [1] relates to C. difficile ATCC 9689. It counts as cell-based, Clostridium difficile.
For assay [2], the system named is C. difficile ATCC 9689. Nature of the assay: Bacterial mass in wells of PM panels (OD 750 nm). In kind it is cell-based, Clostridium difficile. To be noted: OD difference with vs without C. difficile, 72 h.
[3] abbreviates: nitrogen source (PM03/06/07/08).
[4] abbreviates: phosphorus/sulfur source panel PM04.

Trp-Trp: in assay [1], the “Toxin” value was determined as 4104 ng/mL. The “C. difficile Mass” value in assay [2] (setting [3]) was 0.055 OD (750 nm).
For the molecule `NCCO` [2-Aminoethanol], in assay [1], the “Toxin” value came to 173 ng/mL. Further, in assay [2] (carbon source (PM01/PM02)), the “C. difficile Mass” value is recorded as 0.0853 OD (750 nm).
Regarding Lys-Gly, in assay [1], the “Toxin” value came to 1950 ng/mL. Besides, the “C. difficile Mass” value in assay [2] (setting [3]) is 0.047 OD (750 nm).
Regarding `CC(O)C(N)=O` (racemic) [D,L-Lactamide], the “Toxin” value in assay [1] turned out to be 2859 ng/mL. For the same molecule, the “C. difficile Mass” value in assay [2] (setting [3]) is recorded as 0.04 OD (750 nm).
For Trp-Ala the same measures were 415 ng/mL and 0.0489 OD (750 nm).
As for `CSCCC(NC(=O)C(N)CC(C)C)C(=O)O` (stereo not drawn) [Leu-Met] (H-Leu-Met-OH; configuration not given here), in assay [1], the “Effect on toxin production (in words)” value was “toxin production inhibitor” and the “Toxin” value is <0.122 ng/mL. In assay [2] (setting [3]), the “C. difficile Mass” value is given as 0.0501 OD (750 nm).
For `O=C(O)[C@@H]1CCCN1` [L-Proline], the “Toxin induction (rank, in words)” value in assay [1] was “highest toxin inducer in the amino acid category”. For the same molecule, the “C. difficile Mass” value in assay [2] (setting [3]) is given as 0.0394 OD (750 nm).
On to Leu-Ser, for which the “Toxin” value in assay [1] stood at 116 ng/mL. The “C. difficile Mass” value in assay [2] (setting [3]) was 0.037 OD (750 nm).
For Lys-Arg the same measures were 5536 ng/mL and 0.0502 OD (750 nm).
For Pro-Hyp the same measures were 7523 ng/mL and 0.045 OD (750 nm).
The like results for Gly-D-Ser were, in that order, 297 ng/mL and 0.0543 OD (750 nm).
Regarding Arg-Trp, the “Toxin” value in assay [1] came to 8423 ng/mL. For the same molecule, the “C. difficile Mass” value in assay [2] (setting [3]) was 0.0499 OD (750 nm).
For Val-Glu the same measures were 178 ng/mL and 0.0481 OD (750 nm).
Gly-Asp: the “Toxin” value in assay [1] was determined as 1507 ng/mL. Moreover, the “C. difficile Mass” value in assay [2] (carbon source (PM01/PM02)) is 0.1004 OD (750 nm).
As for Trp-Arg, in assay [1], the “Toxin” value was 6468 ng/mL. In assay [2] (setting [3]), the “C. difficile Mass” value was 0.0628 OD (750 nm).
For Pro-Arg the same measures were 2967 ng/mL and 0.0442 OD (750 nm).
For [βAla]-Gly the same measures were 1547 ng/mL and 0.0389 OD (750 nm).
For the molecule Arg-Asp, the “Toxin” value in assay [1] worked out at 10371 ng/mL. Further, the “C. difficile Mass” value in assay [2] (setting [3]) is 0.0444 OD (750 nm).
For Lys-Trp the same measures were 5277 ng/mL and 0.006 OD (750 nm).
For Ser-Pro the same measures were 7136 ng/mL and 0.0472 OD (750 nm).
As for `CCC(C)C(NC(=O)C(N)CC(C)C)C(=O)O` (stereo not drawn) [Leu-Ile] (H-Leu-Ile-OH; configuration not given here), in assay [1], the “Effect on toxin production (in words)” value is “toxin production inhibitor” and the “Toxin” value was <0.122 ng/mL. Besides, in assay [2] (setting [3]), the “C. difficile Mass” value is given as 0.0523 OD (750 nm).
Regarding `NC(=O)CCCCC1CCSS1` (racemic) [D,L-Lipoamide], the “Toxin” value in assay [1] is <0.122 ng/mL. In assay [2] (setting [4]), the “C. difficile Mass” value was 0.0265 OD (750 nm).
Take Arg-Ser: in assay [1], the “Toxin” value came to 7608 ng/mL. Also, in assay [2] (setting [3]), the “C. difficile Mass” value is on record as 0.0448 OD (750 nm).
For Tyr-Phe the same measures were <0.122 ng/mL and 0.0559 OD (750 nm).
The like results for Arg-Phe were, in that order, 6541 ng/mL and 0.0467 OD (750 nm).
For His-Pro the same measures were 8568 ng/mL and 0.0481 OD (750 nm).
Turning to Trp-Val, in assay [1], the “Toxin” value worked out at 184 ng/mL. Besides, the “C. difficile Mass” value in assay [2] (setting [3]) is reported as 0.0276 OD (750 nm).
For Gly-Gly-Leu the same measures were 215 ng/mL and 0.0305 OD (750 nm).
For Val-Asp the same measures were 225 ng/mL and 0.0469 OD (750 nm).
For Tyr-Tyr the same measures were 174 ng/mL and 0.0415 OD (750 nm).
For the molecule Thr-Pro, the “Toxin” value in assay [1] is 4772 ng/mL. In addition, the “C. difficile Mass” value in assay [2] (setting [3]) is reported as 0.0355 OD (750 nm).
The like results for Arg-Glu were, in that order, 4059 ng/mL and 0.0404 OD (750 nm).
Turning to Gly-Trp, the “Toxin” value in assay [1] stood at 3632 ng/mL. In addition, the “C. difficile Mass” value in assay [2] (setting [3]) is given as 0.0431 OD (750 nm).
For `CC(C)CC(N)C(=O)NC(Cc1ccccc1)C(=O)O` (stereo not drawn) [Leu-Phe] (H-Leu-Phe-OH; configuration not given here), in assay [1], the “Effect on toxin production (in words)” value was “toxin production inhibitor” and the “Toxin” value is <0.122 ng/mL. The “C. difficile Mass” value in assay [2] (setting [3]) was 0.0538 OD (750 nm).
In the case of His-Leu, in assay [1], the “Toxin” value amounted to 376 ng/mL. For the same molecule, in assay [2] (setting [3]), the “C. difficile Mass” value is reported as 0.0495 OD (750 nm).
For Gly-Arg the same measures were 352 ng/mL and 0.0403 OD (750 nm).
Turning to Val-Ser, the “Toxin” value in assay [1] was <0.122 ng/mL. In addition, the “C. difficile Mass” value in assay [2] (setting [3]) was 0.0455 OD (750 nm).
The like results for Ile-Arg were, in that order, 122 ng/mL and 0.0442 OD (750 nm).
As to Gly-Glu, in assay [1], the “Toxin” value is 366 ng/mL and 184 ng/mL. Moreover, the “C. difficile Mass” value is 0.0411 OD (750 nm) in assay [2] (carbon source (PM01/PM02)) and 0.0472 OD (750 nm) in assay [2] (setting [3]).
As for His-Lys, the “Toxin” value in assay [1] amounted to 6993 ng/mL. Further, the “C. difficile Mass” value in assay [2] (setting [3]) is recorded as 0.0453 OD (750 nm).
The like results for Gly-D-Thr were, in that order, 157 ng/mL and 0.0549 OD (750 nm).
The like results for Arg-Gln were, in that order, 8912 ng/mL and 0.0476 OD (750 nm).
For `O=P(O)(O)OP(=O)(O)O` [Pyrophosphate], in assay [1], the “Toxin” value was <0.122 ng/mL. Besides, the “C. difficile Mass” value in assay [2] (setting [4]) is reported as 0.0075 OD (750 nm).
As for `Nc1ncnc2nc[nH]c12` [Adenine], in assay [1], the “Toxin induction (rank, in words)” value is on record as “strongest toxin inducer”. Further, the “C. difficile Mass” value in assay [2] (setting [3]) is 0.031 OD (750 nm).
Consider `OP(O)(O)=S` [Thiophosphate], for which the “Toxin” value in assay [1] is <0.122 ng/mL. Besides, the “C. difficile Mass” value in assay [2] (setting [4]) is recorded as 0.0373 OD (750 nm).
As for `CC(C)C[C@H](NC(=O)[C@@H](N)CC(C)C)C(=O)O` [Leu-Leu], in assay [1], the “Effect on toxin production (in words)” value was “toxin production inhibitor” and the “Toxin” value is <0.122 ng/mL. Further, the “C. difficile Mass” value in assay [2] (setting [3]) is 0.0530 OD (750 nm).
Turning to `O=P1([O-])OP(=O)([O-])OP(=O)([O-])O1.[Na+].[Na+].[Na+]` [Trimetaphosphate], the “Toxin” value in assay [1] is <0.122 ng/mL. In assay [2] (setting [4]), the “C. difficile Mass” value is 0.0493 OD (750 nm).
Lys-Phe: the “Toxin” value in assay [1] is <0.122 ng/mL. Also, the “C. difficile Mass” value in assay [2] (setting [3]) is 0.0533 OD (750 nm).
Consider Lys-Lys, for which the “Toxin” value in assay [1] came to 150 ng/mL. The “C. difficile Mass” value in assay [2] (setting [3]) was 0.0427 OD (750 nm).
The like results for `NCCCCC(=O)O` [δ-Amino-N-Valeric acid] were, in that order, 435 ng/mL and 0.0424 OD (750 nm).
The like results for Ala-Pro were, in that order, <0.122 ng/mL and 0.0507 OD (750 nm).
The like results for Gly-Gly-Ile were, in that order, <0.122 ng/mL and 0.0421 OD (750 nm).
With Gly-D-Asp, the “Toxin” value in assay [1] worked out at 1537 ng/mL. The “C. difficile Mass” value in assay [2] (setting [3]) was 0.0467 OD (750 nm).
For Trp-Tyr the same measures were 134 ng/mL and 0.0451 OD (750 nm).
Arg-Arg: the “Toxin” value in assay [1] was determined as 8229 ng/mL. The “C. difficile Mass” value in assay [2] (setting [3]) is 0.0435 OD (750 nm).
In the case of Thr-Gln, the “Toxin” value in assay [1] is <0.122 ng/mL. The “C. difficile Mass” value in assay [2] (setting [3]) was 0.0403 OD (750 nm).
For His-Trp the same measures were 178 ng/mL and 0.0442 OD (750 nm).
The like results for `O=NO` [Nitrite] were, in that order, 383 ng/mL and 0.0333 OD (750 nm).
The like results for `NCCCCCC(=O)O` [ε-Amino-N-Caproic acid] were, in that order, 3389 ng/mL and 0.0366 OD (750 nm).
As for Ala-Gly, the “Toxin” value in assay [1] is 2130 ng/mL. For the same molecule, in assay [2] (carbon source (PM01/PM02)), the “C. difficile Mass” value is reported as 0.0934 OD (750 nm).
On to Lys-Ser, for which the “Toxin” value in assay [1] was 5105 ng/mL. The “C. difficile Mass” value in assay [2] (setting [3]) is on record as 0.0426 OD (750 nm).
The like results for Lys-Glu were, in that order, 271 ng/mL and 0.0425 OD (750 nm).
Leu-Asn: the “Toxin” value in assay [1] was 381 ng/mL. Further, the “C. difficile Mass” value in assay [2] (setting [3]) is recorded as 0.0482 OD (750 nm).
For Val-Pro the same measures were 183 ng/mL and 0.0425 OD (750 nm).
In the case of Gly-Phe-Phe, in assay [1], the “Toxin” value was found to be 298 ng/mL. Moreover, the “C. difficile Mass” value in assay [2] (setting [3]) is listed as 0.2751 OD (750 nm).
For Lys-Asp the same measures were 335 ng/mL and 0.0525 OD (750 nm).
For Gly-Gly-Gly the same measures were 1811 ng/mL and 0.0456 OD (750 nm).
The like results for γ-D-Glu-Gly were, in that order, 10122 ng/mL and 0.0519 OD (750 nm).
Tyr-Ala: the “Toxin” value in assay [1] is 186 ng/mL. For the same molecule, in assay [2] (setting [3]), the “C. difficile Mass” value was 0.0331 OD (750 nm).
For Arg-Ala the same measures were 10080 ng/mL and 0.0456 OD (750 nm).
Consider 2,3-Butanone, for which, in assay [1], the “Toxin” value was <0.122 ng/mL. In assay [2] (carbon source (PM01/PM02)), the “C. difficile Mass” value was 0.0572 OD (750 nm).
As for `NO` [Hydroxylamine], the “Toxin” value in assay [1] was determined as 334 ng/mL. Besides, the “C. difficile Mass” value in assay [2] (setting [3]) is listed as 0.0228 OD (750 nm).
For Ser-Leu the same measures were 187 ng/mL and 0.0404 OD (750 nm).
The like results for Val-Tyr-Val were, in that order, 296 ng/mL and 0.0382 OD (750 nm).
The like results for Arg-Tyr were, in that order, 8819 ng/mL and 0.0455 OD (750 nm).
